Measured values taken from BindingDB's records for doi:10.1021/np100918z (National Cancer Institute-Frederick, 2011).

Target: T1, Programmed cell death protein 4 (Homo sapiens, UniProt Q53EL6)
T1 sequence (Q53EL6 whole entry): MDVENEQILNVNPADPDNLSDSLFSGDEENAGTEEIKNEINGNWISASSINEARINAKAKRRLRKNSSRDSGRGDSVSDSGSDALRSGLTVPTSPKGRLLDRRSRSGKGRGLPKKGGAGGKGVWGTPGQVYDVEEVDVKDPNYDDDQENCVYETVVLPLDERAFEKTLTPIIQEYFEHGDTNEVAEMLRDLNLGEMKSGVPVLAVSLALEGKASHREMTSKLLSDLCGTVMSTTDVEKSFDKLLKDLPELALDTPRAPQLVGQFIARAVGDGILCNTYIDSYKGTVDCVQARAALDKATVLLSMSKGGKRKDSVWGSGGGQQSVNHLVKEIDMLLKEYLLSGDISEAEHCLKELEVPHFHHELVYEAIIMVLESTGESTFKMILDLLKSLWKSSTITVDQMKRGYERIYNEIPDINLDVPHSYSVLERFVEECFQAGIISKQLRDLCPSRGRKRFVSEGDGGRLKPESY
Test: Inhibition of TPA-induced degradation of Pdcd4 (amino acid 39-91) expressed in human HEK293 cells assessed as minimum compound concentration required for 50% recovery of Pdcd4-luciferase signal incubated for 8 hrs by luciferase reporter gene assay

| SMILES | EC50 [nM] |
| --- | --- |
| CCCCCCCCCCCCCCC[C@@H](O)C[C@H](O)C[C@H](O)C[C@H](O)C[C@@H]1OC(=O)C=C[C@@H]1O [Cryptocaryol E] | 1800 |
| CCCCCCCCCCCCCCC[C@@H](O)C[C@H](O)C[C@H](O)C[C@H](O)C[C@H](O)C[C@@H]1OC(=O)C=C[C@@H]1O [Cryptocaryol C] | 1600 |
| CCCCCCCCCCCCCCC[C@H](C[C@H](O)C[C@H](O)C[C@H](O)C[C@H](O)C[C@H]1CC=CC(=O)O1)OC(C)=O [Cryptocaryol B] | 3000 |
| CCCCCCCCCCCCCCC[C@@H](O)C[C@H](O)C[C@H](O)C[C@H](O)C[C@H](O)C[C@H]1CC=CC(=O)O1 [Cryptocaryol A] | 4900 |
| CCCCCCCCCCCCCCC[C@H](C[C@H](O)C[C@H](O)C[C@H](O)C[C@H](O)C[C@@H]1OC(=O)C=C[C@@H]1O)OC(C)=O [Cryptocaryol D] | 1500 |
| CO[C@H]1C[C@@H]2CC[C@@H](C)[C@@](O)(O2)C(=O)C(=O)N2CCCC[C@H]2C(=O)O[C@H]([C@H](C)C[C@@H]2CC[C@@H](O)[C@H](OC)C2)CC(=O)[C@H](C)/C=C(\C)[C@@H](O)[C@@H](OC)C(=O)[C@H](C)C[C@H](C)/C=C/C=C/C=C/1C [Rapamycin C-7, analog 4] | 50 |
